Results as given in patent US5556990A, “Polyarylcarbamoylaza- and -carbamoylalkanedioic acids” (Rhone-Poulenc Rorer Pharmaceuticals Inc., priority 1994, dated 1996).
Structures can show the parent of a compound that is named as a salt.

biological target: T1, squalene synthase (Rattus norvegicus, UniProt Q02769); experiment: Squalene Synthase Inhibition Assay (rat liver microsomes, [3H]FPP substrate, HEPES buffer); assay type: biochemical, male Sprague-Dawley rats
T1 construct: Microsomes are prepared by centrifugation (100,000 g) and then resuspended in the assay buffer; from tissue; host or cells: liver microsomes of male Sprague-Dawley rats (animals from Taconic Farms)
T1 sequence (Q02769 1-416): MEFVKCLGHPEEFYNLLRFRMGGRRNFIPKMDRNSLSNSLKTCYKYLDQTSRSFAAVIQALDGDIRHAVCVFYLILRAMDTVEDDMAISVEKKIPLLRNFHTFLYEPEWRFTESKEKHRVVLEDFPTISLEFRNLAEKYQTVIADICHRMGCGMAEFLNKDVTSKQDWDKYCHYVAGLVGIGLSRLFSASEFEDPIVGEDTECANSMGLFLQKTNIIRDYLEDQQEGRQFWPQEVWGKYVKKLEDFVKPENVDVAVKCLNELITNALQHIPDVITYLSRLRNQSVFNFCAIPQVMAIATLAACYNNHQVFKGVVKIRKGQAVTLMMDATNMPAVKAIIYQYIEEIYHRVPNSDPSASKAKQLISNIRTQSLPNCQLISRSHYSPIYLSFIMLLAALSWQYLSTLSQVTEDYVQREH
Description: Squalene Synthase Inhibition Assay
The squalene synthase assay used is described by Amin et al. in "Bisphosphonates Used for the Treatment of Bone Disorders Inhibit Squalene Synthase and Cholesterol Biosynthesis," Journal of Lipid Research, 33, 1657-1663 (1992).
I. Preparation of Assay Substances:
Test solutions are prepared fresh in 100% DMSO or dH2 O. Subsequent dilutions are made in the same solvent. Compounds are tested initially at 1 μM (final concentrations).
Potassium Phosphate (50 mM,) pH 7.4, and HEPES (4-(2-hydroxyethyl)-1-piperazineethanesulfonic acid, 50 mM) pH 7.4 stock buffers are prepared and stored at 4° C. until use.
C) Microsomal Enzyme Preparation:
Fresh livers from male Sprague-Dawley rats (Taconic Farms, Germantown, N.Y.) weighing 150-200 g are collected after exsanguination. All subsequent procedures are performed at 4° C. The liver is homogenized in the assay buffer (50 mM, pH 7.4). Cellular fractions are separated as described by Popjak, G. in "Enzymes of sterol biosynthesis in liver and intermediates of sterol biosynthesis," Meth. Enzymol. 15 393-454 (1969). Microsomes are prepared by centrifugation (100,000 g) and then resuspended in the assay buffer. Microsomes are rehomogenized with a motor-driven Teflon pestle to yield a uniform suspension (~30 mg protein/ml), aliquoted, and stored at -80° C. until use.
II. Squalene Synthase Assay
The procedure is a modification of those described by Popjack (vida supra) and Poulter et al. in "Squalene synthase. Inhibition by ammonium analogues of carbocationic intermediates in the conversion of presqualene diphosphate to squalene" J. Am. Chem. Soc. 111, 3734-3739 (1989). The assay is performed in 1 ml of 50 mM assay buffer, pH 7.4, containing 10 mM MgCl2, 0.5 mM NADPH, microsomes (30 μg protein), a test compound dissolved in distilled water or dimethylsulfoxide, and substrate [^3 H]FPP (0.5 μM, 0.27 Ci/mmol) in a 16×125 mm glass screw-cap tube. All components except [3H]FPP are preincubated for 10 min. at 37° C. The reaction is initiated by the addition of [^3 H]FPP. After 10 min at 37° C., the reaction is terminated by the addition of 1 ml 15% KOH in ethanol. The tubes are incubated at 65° C. for 30 min. to solubilize proteins. The mixture is extracted with 5 ml petroleum ether for 10 min. After freezing the lower aqueous phase, the organic phase is transferred to glass tubes containing 2 ml distilled water. After washing the lower aqueous phase is frozen and the petroleum ether phase is removed and counted with 10 ml Ready Safe liquid scintillation cocktail using a Beckman LS-9000 scintillation counter. DPM values are adjusted against a blank (no enzyme).
The difference in radioactivity in the presence and absence of the test compound is used to determine the level of inhibition. The IC50 values are calculated using a linear regression program of Tallarida and Murray (1987). Tallarida, R. J. and Murray, R. B. Manual of pharmacologic calculations with computer programs. Springer-Verlag, 1987.

**Q.** For `O=C(O)CC(O)(CC(=O)N1CCCC(COCc2ccc(-c3nc4ccccc4o3)cc2)C1)C(=O)O` (stereo not drawn) [Example 19, 4-[3-(4-(Benzoxazol-2-yl)benzyloxymethyl)piperidin-1-ylcarbonyl]-3-hydroxy-3-carboxybutanoic acid, disodium salt], which IC50 is on record?
**A.** 51 nM

**Q.** For “4-{3-[4-(2-methoxyquinolin-6-yl)phenyl]-1,2,5,6-tetrahydro-pyridylcarbonyl}-3-hydroxy-3-carboxybutanoic acid, disodium salt [Example 12]”, which IC50 is on record?
**A.** 36 nM

**Q.** `CC[C@@H](COCc1ccc(-c2nc3ccccc3o2)cc1)NC(=O)CC(O)(CC(=O)O)C(=O)O` (stereo partly drawn) [Example 22, 3-{N-[1-(4-Benzoxazol-2-ylbenzyloxy)but-2-yl]carbamoyl}-3-hydroxy-3-carboxybutanoic acid, disodium salt] was tested. Which IC50 did it give?
**A.** 77 nM

**Q.** For `O=C(O)CC(NC(=O)NC1CCCCC1OCc1ccc(-c2nc3ccccc3o2)cc1)C(=O)O` [Example 30, 3-(R)-(N-{2-α-[4-(Benzoxazol-2-yl)benzyloxy]cyclohexyl}-β-carbamoylaza)-3-carboxypropanoic acid], which IC50 is on record?
**A.** 2600 nM

**Q.** For `O=C(O)CC(O)(CC(=O)N[C@@H]1CCCC[C@H]1OCc1ccc(-c2nc3ccccc3o2)cc1)C(=O)O` (relative stereo) [Example 5, 4-[2-α-(4-Benzoxazol-2-ylbenzyloxy)cyclohexyl-β-carbamoyl]-3-hydroxy-3-carboxybutyric acid], which IC50 is on record?
**A.** 190 nM

**Q.** With `CC(O)(CNC(=O)C(O)(CC(=O)O)CC(=O)O)c1ccc(-c2ccc3ccccc3c2)cc1` (stereo not drawn) [Example 28, 3-Hydroxy-3-{-N-[2-hydroxy-2-(4-naphthalen-2-yl-phenyl)prop-2-yl]carbamoyl}pentandioic acid, disodium salt] as the compound, how does the IC50 read?
**A.** 100 nM

**Q.** With `O=C(O)CC(O)(CC(=O)N1CCCC(O)(c2ccc(-c3ccc4ccccc4c3)cc2)C1)C(=O)O` (stereo not drawn) [Example 1, 4-[3-Hydroxy-3-(4-naphth2-ylphenyl)piperidin-1-ylcarbonyl]-3-hydroxy-3-carboxybutanoic acid] as the compound, how does the IC50 read?
**A.** 27 nM

**Q.** For `COc1cccc(-c2ccc(C3(O)CCCN(C(=O)CC(O)(CC(=O)O)C(=O)O)C3)cc2)c1` (stereo not drawn) [Example 24, disodium salt], which IC50 is on record?
**A.** 100 nM

**Q.** How did the IC50 turn out when `CCOC(=O)CC(O)(CC(=O)N[C@@H]1CCCC[C@H]1OCc1ccc(-c2nc3ccccc3o2)cc1)C(=O)OCC` (relative stereo) was run?
**A.** 10000 nM
